The text below walks through data of BindingDB's records for patent US10155765 (Merck Sharp & Dohme, 2018).

A word on the IC50: it is the concentration that gives 50% inhibition. Low readings indicate inhibition by little substance, high ones a need for much substance.

This assay addresses T1, Interleukin-1 receptor-associated kinase 4 (Homo sapiens, UniProt Q9NWZ3).
T1 sequence (Q9NWZ3 whole entry): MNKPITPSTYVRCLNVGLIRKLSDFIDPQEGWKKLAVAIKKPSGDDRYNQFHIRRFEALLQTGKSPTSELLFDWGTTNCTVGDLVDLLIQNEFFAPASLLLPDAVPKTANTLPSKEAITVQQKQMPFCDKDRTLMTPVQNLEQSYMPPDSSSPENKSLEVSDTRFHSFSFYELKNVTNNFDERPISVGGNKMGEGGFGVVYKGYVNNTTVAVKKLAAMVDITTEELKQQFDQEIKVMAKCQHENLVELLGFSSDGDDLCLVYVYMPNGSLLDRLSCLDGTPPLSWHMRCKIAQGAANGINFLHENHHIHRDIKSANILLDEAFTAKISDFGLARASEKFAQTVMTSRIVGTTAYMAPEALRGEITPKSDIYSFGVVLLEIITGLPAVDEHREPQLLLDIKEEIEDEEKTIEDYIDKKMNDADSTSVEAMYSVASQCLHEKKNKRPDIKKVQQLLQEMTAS
Briefly: IRAK4 Kinase Assay.

Method: The kinase activity of IRAK4 is determined by its ability to catalyze the phosphorylation of a fluorescent polypeptide substrate. The extent of phosphorylation is measured using the IMAP technology (Molecular Devices) where the phosphorylated fluorescent substrate binds to the large M(III)-based nanoparticles which reduces the rotational speed of the substrate and thus increases its fluorescent polarization (FP).20 μL reaction mixture contains 10 mM TriHCl, pH 7.2, 0.5 nM GST tagged IRAK4 (SignalChem), 100 nM fluorescent peptide substrate (RP7030, Molecular Devices), 100 μM ATP, 1 mM DDT, 1 mM MgCl2, and 0.01% Tween 20. The reaction is initiated by the addition of ATP. After incubation for 30 minutes at 25° C., 60 μL of Progressive IMAP Reagent (Molecular Devices) is added to stop the reaction. Change in RP7030's FP is determined by a FP reader (Analyst HT, LJL BioSystems).

`NC(=O)c1c(NC(=O)c2cnn3ccc(N4CCNCC4)nc23)cnn1-c1ccncc1` [US10155765, Example 35]: the IC50 was 310 nM. `CSc1ncc2ccc(C(=O)Nc3cn(C)nc3C(N)=O)n2n1` [US10155765, Example 57]: it took 370 nM to reach half-maximal inhibition (IC50).
